Source: the supplement of paper PMC6045584
± gives the standard deviation of the averaged measurements.

Key:
[1] = compound: Cn1ncnc1[C@H]1c2n[nH]c(=O)c3cc(F)cc(c23)N[C@@H]1c1ccc(F)cc1 [BMN-673]; assay: surviving fraction relative to DMSO-only wells; higher = less growth inhibition; details: exposure time: 5 days
Summary of the method: (§1)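 Continuous five-day exposure to inhibitors at 0.5, 1, 5, 10, 50, 100, 500 and 1000 nM started 24 hours after log-phase tumour cell lines were seeded at 250–500 cells per well in 384-well plates. Luminescence was read after 10 minutes at room temperature. Viability is given as surviving fraction, meaning CellTiter-Glo luminescence normalised to the median of DMSO-only wells.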

[2] = compound: C[C@H](CN(C)C)Oc1nc(Nc2cc3cccc(Cl)c3cn2)cnc1C#N; assay: as above; details: exposure time: 5 days
Summary of the method: as §1

Test System | surviving fraction ([1]; 0.5 nM) | surviving fraction ([1]; 1 nM) | surviving fraction ([1]; 5 nM) | surviving fraction ([1]; 10 nM) | surviving fraction ([1]; 50 nM) | surviving fraction ([1]; 100 nM) | surviving fraction ([1]; 500 nM) | surviving fraction ([1]; 1000 nM) | surviving fraction ([2]; 0.5 nM) | surviving fraction ([2]; 1 nM) | surviving fraction ([2]; 5 nM) | surviving fraction ([2]; 10 nM) | surviving fraction ([2]; 50 nM) | surviving fraction ([2]; 100 nM) | surviving fraction ([2]; 500 nM) | surviving fraction ([2]; 1000 nM)
HCC78 LUNG | 1.06 ± 0.077 | 1 ± 0.097 | 1.04 ± 0.098 | 0.931 ± 0.21 | 0.678 ± 0.19 | 0.47 ± 0.084 | 0.117 ± 0.013 | 0.0383 ± 0.013 | 0.677 ± 0.09 | 0.908 ± 0.11 | 0.832 ± 0.17 | 0.984 ± 0.022 | 0.832 ± 0.15 | 0.919 ± 0.12 | 0.317 ± 0.1 | 0.131 ± 0.041
NY BONE | 1.019 ± 0.0087 | 1.01 ± 0.025 | 1.01 ± 0.037 | 0.934 ± 0.056 | 0.928 ± 0.047 | 0.879 ± 0.033 | 0.501 ± 0.011 | 0.257 ± 0.014 | 0.9707 ± 0.0081 | 0.948 ± 0.042 | 1.01 ± 0.026 | 1.01 ± 0.015 | 1 ± 0.029 | 0.854 ± 0.06 | 0.119 ± 0.0045 | 0.0907 ± 0.0051
T47D BREAST | 1.01 ± 0.04 | 0.975 ± 0.036 | 0.872 ± 0.051 | 0.82 ± 0.026 | 0.714 ± 0.019 | 0.654 ± 0.023 | 0.535 ± 0.017 | 0.455 ± 0.0098 | 1.02 ± 0.043 | 1.06 ± 0.044 | 1.04 ± 0.027 | 1.03 ± 0.032 | 1.1 ± 0.046 | 1.14 ± 0.029 | 0.919 ± 0.063 | 0.766 ± 0.024
SG28 HEADNECK | 1.09 ± 0.14 | 1.064 ± 0.0085 | 1.12 ± 0.13 | 1.06 ± 0.012 | 1.01 ± 0.12 | 0.996 ± 0.065 | 1.01 ± 0.15 | 1.01 ± 0.074 | 1.02 ± 0.033 | 1.15 ± 0.033 | 0.996 ± 0.05 | 1.09 ± 0.19 | 1.04 ± 0.069 | 1.22 ± 0.31 | 1.11 ± 0.018 | 0.959 ± 0.18
SUM159 BREAST | 1.12 ± 0.016 | 1.104 ± 0.0035 | 1.07 ± 0.013 | 1.06 ± 0.011 | 1.079 ± 0.0027 | 1.057 ± 0.0089 | 1.04 ± 0.013 | 0.957 ± 0.031 | 1.04 ± 0.038 | 1.06 ± 0.034 | 1.05 ± 0.03 | 1.05 ± 0.033 | 1.06 ± 0.024 | 1.05 ± 0.024 | 1.03 ± 0.02 | 0.986 ± 0.0078
MDAMB134 BREAST | 0.955 ± 0.085 | 0.908 ± 0.14 | 0.971 ± 0.057 | 0.929 ± 0.014 | 1.01 ± 0.067 | 0.991 ± 0.025 | 0.857 ± 0.23 | 0.775 ± 0.08 | 0.726 ± 0.035 | 0.791 ± 0.072 | 0.766 ± 0.071 | 0.663 ± 0.12 | 0.66 ± 0.073 | 0.6525 ± 0.005 | 0.497 ± 0.054 | 0.488 ± 0.02
SG27 HEADNECK | 1.15 ± 0.04 | 1.08 ± 0.11 | 1.06 ± 0.046 | 0.978 ± 0.12 | 1.02 ± 0.17 | 0.927 ± 0.12 | 0.917 ± 0.038 | 0.877 ± 0.16 | 1.14 ± 0.17 | 0.995 ± 0.085 | 1.11 ± 0.12 | 0.997 ± 0.04 | 1.1 ± 0.028 | 1.03 ± 0.065 | 1.16 ± 0.062 | 1.15 ± 0.097
93VU HEADNECK | 1.07 ± 0.071 | 1.14 ± 0.11 | 1.07 ± 0.14 | 0.983 ± 0.056 | 0.98 ± 0.084 | 0.925 ± 0.018 | 0.806 ± 0.087 | 0.632 ± 0.053 | 0.995 ± 0.04 | 1.04 ± 0.079 | 1.04 ± 0.06 | 1.09 ± 0.039 | 1.03 ± 0.11 | 1.14 ± 0.1 | 0.865 ± 0.066 | 0.976 ± 0.09
HCC1954 BREAST | 1.01 ± 0.17 | 1.34 ± 0.34 | 1.25 ± 0.17 | 1.21 ± 0.12 | 0.907 ± 0.038 | 0.804 ± 0.042 | 0.71 ± 0.12 | 0.74 ± 0.072 | 1.14 ± 0.11 | 1.24 ± 0.018 | 1.32 ± 0.023 | 1.11 ± 0.15 | 1.35 ± 0.051 | 1.04 ± 0.024 | 0.48 ± 0.072 | 0.242 ± 0.02
S68 BREAST | 1.17 ± 0.16 | 0.724 ± 0.12 | 0.602 ± 0.18 | 0.533 ± 0.095 | 0.445 ± 0.17 | 0.378 ± 0.059 | 0.357 ± 0.032 | 0.271 ± 0.054 | 0.922 ± 0.12 | 1.07 ± 0.076 | 1.15 ± 0.062 | 0.966 ± 0.065 | 0.874 ± 0.14 | 0.652 ± 0.052 | 0.153 ± 0.0038 | 0.114 ± 0.0055
